This note sets out measurements from patent US20150119247A1, “Composition and Method for Stress Mitigation in Plants” (Stoller Enterprises, Inc., priority 2011, published 2015).

Common to all, as to format: in vivo
In one assay the test system is field-grown corn crops. Description: Field-grown corn treated before the reproductive stage, Weslaco, Tex.: yield and seed size. The source says: In this example, the effect of the plant growth regulator cytokinin, specifically kinetin, and applied at various times before the reproductive stages of growth, was observed. In Table 2, V7, V10, V13, and V16 refer to stages of growth of the corn plant. V7 refers to the growth stage where the collar of the seventh leaf is visible, V10 refers to the growth stage where the collar of the tenth leaf is visible, V13 refers to the growth stage where the collar of the thirteenth leaf is visible, and V16 refers to the growth stage where the collar of the sixteenth leaf is visible. V16 is also just prior to the reproductive stage of growth. The corn crops were grown in Weslaco, Tex. The water levels were either none (i.e., simply rain referred to as dryland), or drip through a “drip tape” (i.e., drip irrigation whereby sufficient water was applied for more optimal growth of the crop). Results are given for yield (measured in bushels per acre), and the weight of the seed (measured in grams per 1,000 kernels). T tests indicate whether there were differences.

Assay [1] concerns field-grown beans (i.e., lima beans). Put plainly: Lima bean field yield, Gustine, CA, 2010. The note with it: aqueous kinetin solution applied to foliage just prior to flowering at one pint per acre or two pints per acre; up to approx. 35 degrees Celsius. As to the method: In this example, the effect of the plant growth regulator cytokinin, specifically kinetin, applied at the beginning of flowering and two to four weeks thereafter to field-grown beans (i.e., lima beans) in Gustine, Calif. was observed. Growing temperatures up to approximately 35 degrees Celsius were recorded. […] The difference of “t” test of 5% is significant.

In the next assay the test system is Arabidopsis thaliana. Put plainly: High temperature seed/silique development, first experiment (FIG. 1). The text has this: These experiments employed the model crop plant, Arabidopsis thaliana, whose genome was mapped as early as the year 2000. To ensure uniformity, the tested plants were selected such that they were in the beginning stages of flowering and had balanced numbers of flowers across groups. The control agent as well as all tested agents were applied in a water solution containing 0.01% Silwet® super spreader (obtained from General Electric) to the leaves and flowers (i.e., foliage) of the tested plants. […] The third and fourth agents tested consisted of 6-benzyl adenine (6-BA) and kinetin (KIN)—both cytokinins—each applied at the rate of 100 μg/1 (0.1 ppm). […] Aqueous solutions of the tested agents prepared to the stated concentrations/doses were sprayed onto test groups of flowers and leaves (i.e., foliage) of Arabidopsis thaliana until runoff at one day prior to heat exposure and again at four days after the beginning of heat exposure. The total duration of heat exposure was fourteen (14) days. […] The seed pods (i.e. siliques), filled with developed seeds (siliques >7 mm long and/or >1 mm wide and/or bearing seeds), were counted just prior to the beginning of the experiment, and again after fourteen (14) days of heat exposure treatments.

The next assay deals with field corn. Put plainly: Field corn yield trials, Ohio, cytokinin with low potassium. To be noted: potassium ½ lb. to 1 lb. per acre with cytokinin (X-Cyte) 1 pint per acre; unreplicated field trials over three years. The source says:
In this example, the effect of the plant growth regulator/hormone, cytokinin, applied together with low concentrations of potassium, was observed. The cytokinin that was field-applied was X-Cyte, as previously disclosed. In these unreplicated field trials, conducted in Ohio over a three year period, potassium at ½ lb. to 1 lb. per acre and cytokinin at 1 pint per acre were applied to field corn. The average increase in yield attained by applying potassium, in addition to cytokinin, was approximately fifteen (15) bushels per acre.

Where [2] appears, read: EXPT 1, stage V10, variety B25DC25 R80, drip.
[3] abbreviates: EXPT 1, stage V16, variety B25DC25 R80, drip.
Setting [4] is: EXPT 2, stage V10, variety Asgrow 7573, dry land.
Where [5] appears, read: EXPT 3, stage V7, variety H2684162, dry land.
Setting [6] is: EXPT 3, stage V10, variety H2684162, dry land.
[7] abbreviates: EXPT 3, stage V13, variety H2684162, dry land.
Where [8] appears, read: EXPT 3, stage V16, variety H2684162, dry land.

For the molecule `c1coc(CNc2ncnc3[nH]cnc23)c1` [kinetin], the “1,000 Kernel wt g” value in the assay on field-grown corn crops (setting [2]) is reported as 298 g; with field-grown corn crops (setting [3]) it was 298 g; in the assay with field-grown corn crops (setting [4]) it was 244 g; in the assay with field-grown corn crops (setting [5]) it was 295 g; with field-grown corn crops (setting [6]) it was 296 g; in the assay on field-grown corn crops (setting [7]), 299 g. Further, the “1,000 Kernel wt g” value in the assay on field-grown corn crops (setting [8]) worked out at 296 g. Moreover, the “Yield Bu/acre” value in the assay with field-grown corn crops (setting [2]) was 259 Bu/acre; with field-grown corn crops (setting [3]), 311 Bu/acre; in the assay on field-grown corn crops (setting [4]) it was 149 Bu/acre; with field-grown corn crops (setting [5]), 212 Bu/acre; in the assay on field-grown corn crops (setting [6]), 211 Bu/acre; with field-grown corn crops (setting [7]), 208 Bu/acre. Also, the “Yield Bu/acre” value with field-grown corn crops (setting [8]) is recorded as 207 Bu/acre. For the same molecule, the “yield versus untreated control” value in the assay with field-grown corn crops (all treatments (stages V7 to V16, drip and dryland)) is on record as “enhanced yield in a highly significant fashion”. The “seed size versus untreated control” value in the assay with field-grown corn crops (dryland conditions (no added water or irrigation)) is “increased seed size in a highly significant fashion”. Also, in assay [1], the lima bean yields entry is “increased significantly”. Further, in the assay with Arabidopsis thaliana (100 μg/l (0.1 ppm) sprayed on foliage 1 day before and 4 days after start of heat, 14 days at 33-36 degrees Celsius days), the “number of seeds (i.e., siliques)” value is “increased number of seeds”.

With `[K+]` [potassium], the “average increase in yield by applying potassium in addition to cytokinin” value in the assay on field corn was ~15 bushels per acre.

As for `OC[C@H]1O[C@@](CO)(O[C@H]2O[C@H](CO)[C@@H](O)[C@H](O)[C@H]2O)[C@@H](O)[C@@H]1O` [sucrose], in the assay with Arabidopsis thaliana (sucrose solutions of 20 mM and 100 mM sprayed on foliage, 14 days heat exposure), the “sugar/photosynthate deficiency (plant autophagy)” value is listed as “alleviated the sugar/photosynthate deficiency”.
